Results: patent publication US6034113A, “Derivatives of 1,3,4-oxadiazolone” (Bristol-Myers Squibb Company, priority 1999, dated 2000)

Columns and labels:
[1] = tested on: cloned mammalian (mSlo or hSlo) BK; assay: BK-mediated outward current, two-electrode voltage clamp in Xenopus oocytes; assay type: cell-based; details: 1 μM; at least 5 oocytes; mSlo or hSlo expressed in Xenopus oocytes
Protocol: (§1) The ability of the compound of Example 1 to open BK channels and increase whole-cell outward (K^+) BK-mediated currents was assessed under voltage-clamp conditions by determining their ability to increase cloned mammalian (mSlo or hSlo) BK--mediated outward current heterologously expressed in Xenopus oocytes [Butler, A., et al., Science, 261, pp. 221-224 (1993); and Dworetzky, S. I., et al., Mol. Brain Res., 27, pp.189-193 (1994)]. The two BK constructs employed represent nearly structurally identical homologous proteins, and have proven to be pharmacologically identical in our tests. To isolate BK current from native (background, non-BK) current, the specific and potent BK channel-blocking toxin iberiotoxin (IBTX) [Galvez, A., et al., J. Biol. Chem, 265, pp. 11083-11090 (1990)] was employed at a supramaximal concentration (50 nM). The relative contribution of BK channels current to total outward current was determined by subtraction of the current remaining in the presence of IBTX (non-BK current) from the current profiles obtained in all other experimental conditions (control, drug, and wash). […]

[2] = tested on: non-BK native currents in the oocytes; assay: Effect on non-BK native currents (IBTX-insensitive) in oocytes; assay type: cell-based, Xenopus; details: at the tested concentration; current remaining in presence of 50 nM IBTX
Protocol: as §1

[3] = Rapid screen of prodrug hydrolysis and drug release in plasma; assay type: in vitro ADME; details: 10 ug/mL in fresh rat plasma at 37° C.; stock 1 mg/mL in PEG-400; analysis 5 minutes after incubation
Protocol: A rapid screen to determine the ability of prodrugs to hydrolyze and release the drug (compound of Example 1) is conducted as follows. A 1 mg/mL stock solution of the prodrug is prepared in distilled water or acetonitrile or PEG-400. Plasma from freshly collected rat or human blood is used in this assay. To 1 mL of plasma at 37° C. was added 10 μL of stock solution of prodrug and mixed gently. Immediately after the mixing, 100 μL of plasma was removed and quenched with 300 μL of acetontrile (Zero time sample). Samples were also obtained at 30 minutes and quenched immediately. The quenched samples were centrifuged to obtain a clear supernatant for analysis. The stock solution, T=0 and T=30 samples were analyzed by a HPLC assay that separates the drug from the prodrug. Based on the relative peak areas of prodrug and drug in these samples, different prodrugs are characterized as fast, moderate and slow release agents. For example, in this model, the compound of Example 13 was dissolved in PEG-400 at a concentration of 1 mg/mL and incubated at 10 ug/mL in fresh rat plasma at 37° C.

[4] = tested on: focal cerebral ischemia in the Wistar rat; assay: Focal stroke model, permanent MCA/CCA occlusion; assay type: in vivo; details: 1 mg/kg intravenously, single bolus two hours after MCA occlusion; measured 24 hours after MCAO; vs vehicle-treated (water) control
Protocol: To determine the ability of the compounds of the present invention to reduce cell loss resulting from neuronal ischemia, a standard focal cerebral ischemia is induced by permanent occlusion of the left middle cerebral artery (MCA) and common carotid artery (CCA) with one hour occlusion of the right CCA in the Wistar rat. The surgeries are performed using the sub-temporal approach of A. Tamura, et al., J. Cereb. Blood Flow Metab., 1, pp. 53-60, (1981) and its modifications [K. Osbome, et al., J. Neurol Neurosurg. Psychiatry, 50, pp. 402-410 (1987) and S. Menzies, et al., Neurosurgery, 31, pp. 100-107, (1992).]
The compound of Example 13 was evaluated in the focal stroke model involving permanent occlusion of the left MCA (MCAO) and CCA (CCAO) and temporary occlusion of the right CCA in the Wistar rat. This procedure results in a reliably large neocortical infarct volume that is measured by means of vital dye exclusion in serial slices through the brain 24 hours after MCAO. In the present test, compounds were administered using an i.v. or i.p. route of administration two hours after occlusion.

| Structure (SMILES) | increase of BK current, % of control of IBTX-sensitive current [1] [%] | effect on non-BK native currents in the oocytes [2] | conversion of prodrug to the compound of Example 1 in plasma [3] | reduction of cortical infarct volume [4] |
| --- | --- | --- | --- | --- |
| O=c1oc(-c2ccc(C(F)(F)F)cc2)nn1Cc1cc(Cl)ccc1O [Example 1, 3-[(5-Chloro-2-hydroxyphenyl)methyl]-5-[4-(trifluoromethyl)phenyl]-1,3,4-oxadiazol-2(3H)-one] | 126 | did not effect non-BK native currents | – | – |
| C[N+](C)(C)CCCC(=O)OCOc1ccc(Cl)cc1Cn1nc(-c2ccc(C(F)(F)F)cc2)oc1=O [Example 13, 3-[[[[4-Chloro-2-[[5-[4-(trifluoromethyl)phenyl]-2,3-dihydro-2-oxo-1,3,4oxadiazol-3-yl]methyl]phenoxy]methoxy]carbonyl]propyl]trimethylammonium methanesulfonate] | – | – | conversion of the compound of Example 13 to the compound of Example 1 | about 17% |
